“Also recorded” adds a separate entry of the source.
System: mold
Experiment: Inhibition of mold growth in a polish applied to a mitt
Type: cell-based
Settings: chemical added to base polish (Pedag Deluxe Cream Polish), samples compared with each other
Description: In each of the following Examples, a polish was applied to a mitt. The base polish was provided by Pedag USA, Inc. (Seattle) under the trade name Deluxe Cream Polish. […] The second sheet layer was constructed of a high-loft spunbond web of bicomponent polypropylene/polyethylene fibers with a side-by-side orientation laminated to a film of high density polyethylene on the inside surface. […] The first sheet layer and the second sheet layer were ultrasonically bonded leaving an opening for the insertion of two fingers (such as at seams 16 of FIGS. 1-3). Several different chemicals were tested to determine their ability to inhibit mold growth in a polish that has been applied to a mitt. For example, chloroacetamide, polyaminopropyl biguanide available under the name Cosmocil CQ from ICI Americas Inc., organosilicone quaternary ammonium compound available under the name AEM 5700 from Dow Chemical by Aegis Environmental Management (Midland, Mich.), a combination of combination of isothiazolones and N-/O-formals available under the name Parmetol DF35 from Schulke & Mayr, and methylparaben were each added to a base polish sample. The resulting polish samples were then applied to mitts. The ability of the polish to inhibit mold growth for each sample was then compared.

| Structure (SMILES) | ability of the polish to inhibit mold growth |
| --- | --- |
| CCC(=O)O [propanoic acid] | inhibited growth of mold better than the other tested chemicals |
| COC(=O)c1ccc(O)cc1 [methylparaben] | inhibited growth of mold better than the other tested chemicals; also recorded: best results of all samples |

Reference: patent publication US7979946B2, “Polish and polishing mitts” (Kimberly-Clark Worldwide, Inc., priority 2006, dated 2011)
